Assay results as given in patent US20190010158A1, “ANTITUMOR EFFECT POTENTIATOR COMPRISING PYRROLOPYRIMIDINE COMPOUND” (TAIHO PHARMACEUTICAL CO., LTD, priority 2015, published 2019).

System: human acute T lymphoblastic leukemia CCRF-CEM cell lines
Assay: Cell growth inhibition 1 (CellTiter-Glo)
Type: cell-based
Conditions: culture with test compound 72 hours

Row | Structure (SMILES) | IC50 [nM]
1 | CCS(=O)(=O)c1cc(N2CCCC2)cc(F)c1C#Cc1cn([C@@H]2O[C@H](CNS(N)(=O)=O)[C@@H](O)[C@H]2O)c2ncnc(N)c12 [Reference Example 70, 4-Amino-7-[(2R,3R,4S,5R)-3,4-dihydroxy-5-[(sulfamoylamino)methyl]tetrahydrofuran-2-yl]-5-[2-(2-ethylsulfonyl-6-fluoro-4-pyrrolidin-1-yl-phenyl)ethynyl]pyrrolo[2,3-d]pyrimidine] | 15
2 | COc1cncc(F)c1C#Cc1cn([C@@H]2O[C@H](CNS(N)(=O)=O)[C@@H](O)[C@H]2O)c2ncnc(N)c12 [Reference Example 71, 4-Amino-7-[(2R,3R,4S,5R)-3,4-dihydroxy-5-[(sulfamoylamino)methyl]tetrahydrofuran-2-yl]-5-[2-(3-fluoro-5-methoxy-4-pyridyl)ethynyl]pyrrolo[2,3-d]pyrimidine] | 45
3 | CCS(=O)(=O)c1cc(N2CC[C@@H](O)C2)cc(F)c1C#Cc1cn([C@@H]2O[C@H](CNS(N)(=O)=O)[C@@H](O)[C@H]2O)c2ncnc(N)c12 [Reference Example 72, 4-Amino-7-[(2R,3R,4S,5R)-3,4-dihydroxy-5-[(sulfamoylamino)methyl]tetrahydrofuran-2-yl]-5-[2-[2-ethylsulfonyl-6-fluoro-4-[(3R)-3-hydroxypyrrolidin-1-yl]phenyl]ethynyl]pyrrolo[2,3-d]pyrimidine] | 88
4 | Nc1ncnc2c1c(C#Cc1c(F)cccc1Cl)cn2[C@@H]1O[C@H](CNS(N)(=O)=O)[C@@H](O)[C@H]1O [Reference Example 73, 4-Amino-5-[2-(2-chloro-6-fluoro-phenyl)ethynyl]-7-[(2R,3R,4S,5R)-3,4-dihydroxy-5-[(sulfamoylamino)methyl]tetrahydrofuran-2-yl]pyrrolo[2,3-d]pyrimidine] | 71
5 | Nc1ncnc2c1c(C#Cc1cccc3c1S(=O)(=O)CCC3)cn2[C@@H]1O[C@H](CNS(N)(=O)=O)[C@@H](O)[C@H]1O [Reference Example 83, 4-Amino-7-[(2R,3R,4S,5R)-3,4-dihydroxy-5-[(sulfamoylamino)methyl]tetrahydrofuran-2-yl]-5-[2-(1,1-dioxo-3,4-dihydro-2H-thiochromen-8-yl)ethynyl]pyrrolo[2,3-d]pyrimidine] | 56
6 | Nc1ncnc2c1c(C#Cc1c(F)cccc1S(N)(=O)=O)cn2[C@@H]1O[C@H](CNS(N)(=O)=O)[C@@H](O)[C@H]1O [Reference Example 84, 2-[2-[4-Amino-7-[(2R,3R,4S,5R)-3,4-dihydroxy-5-[(sulfamoylamino)methyl]tetrahydrofuran-2-yl]pyrrolo[2,3-d]pyrimidin-5-yl]ethynyl]-3-fluoro-benzenesulfonamide] | 230
7 | N#Cc1cccc(F)c1C#Cc1cn([C@@H]2O[C@H](CNS(N)(=O)=O)[C@@H](O)[C@H]2O)c2ncnc(N)c12 [Reference Example 85, 4-Amino-5-[2-(2-cyano-6-fluoro-phenyl)ethynyl]-7-[(2R,3R,4S,5R)-3,4-dihydroxy-5-[(sulfamoylamino)methyl]tetrahydrofuran-2-yl]pyrrolo[2,3-d]pyrimidine] | 38
8 | Nc1ncnc2c1c(C#Cc1c(F)cccc1OCC1CC1)cn2[C@@H]1O[C@H](CNS(N)(=O)=O)[C@@H](O)[C@H]1O [Reference Example 86, 4-Amino-5-[2-[2-(cyclopropylmethoxy)-6-fluoro-phenyl]ethynyl]-7-[(2R,3R,4S,5R)-3,4-dihydroxy-5-[(sulfamoylamino)methyl]tetrahydrofuran-2-yl]pyrrolo[2,3-d]pyrimidine] | 5.5
9 | CSc1cccc(F)c1C#Cc1cn([C@@H]2C[C@H](CNS(N)(=O)=O)[C@@H](O)[C@H]2O)c2ncnc(N)c12 [Reference Example 98, 4-Amino-7-[(1R,2S,3R,4R)-2,3-dihydroxy-4-[(sulfamoylamino)methyl]cyclopentyl]-5-[2-(2-fluoro-6-methylsulfanyl-phenyl)ethynyl]pyrrolo[2,3-d]pyrimidine] | 7.3
